Test results taken from US20260207450A1, “ANTI-DANDRUFF COMPOSITIONS” (Firmenich SA, priority 2022, published 2026).
Converted amounts (≈) assume the structure as drawn.

Assays:
[1] = tested on: M. restricta ATCC MYA-4611; assay: Disc-diffusion assay, perfumery materials in DMSO, M. restricta; format: cell-based, Malassezia restricta; details: for zone of inhibition at 1 % / zone of inhibition at 0.2 % / zone of inhibition at 2 %: Malassezia restricta, 144 h; for Inhibition zone (mm) M. restricta: 20 μL on 6 mm disc, 6 days, NI means no inhibition zone
Procedure: (§1) Anti-Malassezia effect of perfumery materials in solvent in DMSO was determined using disc-diffusion assay, based on the method of J Mycol Infect 2018: 23: 91-98. In brief, working cultures of Malassezia strains were prepared from −80 C stock culture on mDixon agar plate (for M. furfur DSM 6170) or mLN agar plate (for M. restricta ATCC MYA-4611 and M. globosa ATCC MYA-4612), and cells were suspended in 0.9% saline, and spread onto mDixon or mLN agar surface to prepare lawn plate. Test samples solutions are prepared in DMSO to final concentrations of 0.2%, 1% or 2%. Discs (Whatman, 6 mm in diameter) were placed on inoculated agar plates with each Malassezia strains respectively, including M. furfur DSM 6170, M. restricta ATCC MYA-4611, and M. globosa ATCC MYA-4612. Aliquots (20 μL) of each sample solution was added to each disc. Agar plates were incubated at 30° C. for 3 days for M. furfur DSM 6170, and 6 days for M. restricta ATCC MYA-4611, and M. globosa ATCC MYA-4612. After incubation, diameters of the clear inhibition zones around the discs were measured. Inhibition zone greater than 6 mm are regarded as having anti-Malassezia effect.

[2] = tested on: Staphylococcus aureus ATCC 6538; assay: MIC assay on Staphylococcus aureus ATCC 6538; format: cell-based; details: TSB, 37° C., 24 h aerobically, dilutions 29 to 10000 ppm; for MIC: Staphylococcus aureus, ATCC6538, read-out: MIC (ppm) S. aureus
Procedure: MIC assay for Staphylococcus aureus ATCC 6538 is based on Clinical Laboratory Standard Institute: CLSI/NCCLS M07-A8. Cell suspension of working cultures of S. aureus was prepared following the instructions of culture provider ATCC, USA.
(§2) A total of 26 perfumery materials were examined for an inhibition effect on Malassezia furfur and Staphylococcus aureus.

M. globosa ATCC MYA-4612 = assay: Disc-diffusion assay, perfumery materials in DMSO, M. globosa; format: cell-based, Malassezia globosa; details: for zone of inhibition at 1 % / zone of inhibition at 0.2 % / zone of inhibition at 2 %: Malassezia globosa, 144 h; for Inhibition zone (mm) M. globosa: 20 μL on 6 mm disc, 6 days, NI means no inhibition zone
Procedure: as §1

M. restricta [3] = assay: Disc-diffusion assay, additional perfumery materials in DMSO, M. restricta, 4 days; format: cell-based, Malassezia restricta; details: Malassezia restricta, 96 h; Table 20; 0.5% in DMSO, 4 days; read-out: Inhibition zone diameter (mm) on M. restricta
Procedure: (§3) Anti-Malassezia effect of additional perfumery materials in DMSO was determined using disc-diffusion assay as described previously. Test samples solutions were prepared in DMSO to final concentrations of 0.5%, 1% or 2%. Discs (Whatman, 6 mm in diameter) were placed on inoculated agar plates. Aliquots (20 μL) of each sample solution was added to each disc. Agar plates were incubated at 30° C. for 4 days. After incubation, diameters of the clear inhibition zones around the discs were recorded
as §3, with “above.” for “previously.”, “recorded.” for “recorded”
Anti-Malassezia effect of additional perfumery materials in solvent in DMSO was determined using disc-diffusion assay, as described previously. Test samples solutions are prepared in DMSO to final concentrations of 0.5%. Discs (Whatman, 6 mm in diameter) were placed on inoculated agar plates. Aliquots (20 μL) of each sample solution was added to each disc. Agar plates were incubated at 30° C. for 4 days. After incubation, diameters of the clear inhibition zones around the discs were measured.

[4] = tested on: Malassezia furfur DSM 6170; assay: MIC assay on Malassezia furfur DSM 6170 (resazurin); format: cell-based; details: 30° C., 48 h aerobically, dilutions 29 to 10000 ppm; for MIC: Malassezia furfur, DSM6170
Procedure: The MIC assay for Malassezia furfur DSM 6170 was modified based on the method in Journal of Clinical Microbiology 2017, Vol 55: 1883-1893. In brief, working culture was prepared from stock cultures stored at −80° C. to obtain a cell suspension as the inoculum. Serial dilutions of samples, 29 to 10000 ppm, were tested to determine the MIC values for growth of Malassezia furfur DSM 6170 after at 30° C. for 48 h aerobically. Resazurin was used as growth indicator.
as §2

M. furfur DSM 6170 = assay: Disc-diffusion assay, perfumery materials in DMSO, M. furfur; format: cell-based, Malassezia furfur; details: for zone of inhibition at 2 %: Malassezia furfur, DSM6170, 72 h
Procedure: as §1

M. restricta [5] = assay: Disc-diffusion assay, combinations with piroctone olamine (PO) in DMSO, M. restricta; format: cell-based, Malassezia restricta; details: 4 days, ratio greater than 1.0 = boosting effect
Procedure: Anti-Malassezia effect of combinations of PO and perfumery materials in solvent DMSO against M. restricta was determined using disc-diffusion assay as described above. Aliquots (20 μL) of each sample solution was added to each disc. Agar plates were incubated at 30° C. for 4 days. After incubation, diameters of the clear inhibition zones around the discs were measured. Ratio of inhibition zone diameter of each combination to that of PO only were calculated. […] Anti-Malassezia effect of combinations of PO and perfumery raw materials mixtures in solvent DMSO was determined using disc-diffusion assay, as described above. Aliquots (20 μL) of each sample solution was added to each disc. Agar plates were incubated at 30° C. for 4 days. After incubation, diameters of the clear inhibition zones around the discs were measured. Ratio of inhibition zone diameter of each combination to that of PO only were calculated.

| Compound | zone of inhibition at 1 % [1] | MIC [2] | zone of inhibition at 1 % (M. globosa ATCC MYA-4612) | MIC [4] | zone of inhibition at 0.2 % (M. globosa ATCC MYA-4612) | zone of inhibition at 0.2 % [1] | other results |
| --- | --- | --- | --- | --- | --- | --- | --- |
| CC(C=O)Cc1ccc(C(C)C)cc1 (racemic) [cyclamen aldehyde, (+/−)-3-(4-isopropylphenyl)-2-methylpropanal] | 8.2 mm | 933 µg/mL (≈ 4900 µM) | 6.7 mm | – | – | – | zone of inhibition at 0.5 % (M. restricta [3]): 7.5 mm |
| CCOC(=O)C(C)CC (racemic) [ethyl 2-methyl butanoate, (+/−)-ethyl 2-methylbutanoate] | – | – | 6.6 mm | – | – | – | – |
| CC(C)c1cccc(C(C)CC=O)c1 (racemic) [floral butanal, (+/−)-3-(3-isopropylphenyl)butanal] | 8.2 mm | 387 µg/mL (≈ 2030 µM) | – | 1300 µg/mL (≈ 6830 µM) | – | – | zone of inhibition at 0.5 % (M. restricta [3]): 7.5 mm |
| CCCCCCCCC1CCC(=O)O1 (racemic) [gamma-dodecalactone, (+/−)-5-octyldihydro-2(3h)-furanone] | – | 173 µg/mL (≈ 872 µM) | – | 148 µg/mL (≈ 746 µM) | 6.3 mm | – | zone of inhibition at 2 % (M. furfur DSM 6170): 6.9 mm |
| CC(C=O)Cc1ccc(C(C)(C)C)cc1 (racemic) [lilial, (+/−)-2-methyl-3-[4-(2-methyl-2-propanyl)phenyl]propanal] | – | 325 µg/mL (≈ 1590 µM) | 7.4 mm | – | – | – | – |
| CCCCC[C@H]1C(=O)CC[C@@H]1CC(=O)OC (racemic) [methyl dihydrojasmonate, methyl 2-((1 RS,2RS)-3-oxo-2-pentylcyclopentyl)acetate] | – | 330 µg/mL (≈ 1460 µM) | – | 222 µg/mL (≈ 981 µM) | – | 6.1 mm | – |
| COc1ccc(CC(C)C=O)cc1 (racemic) [para-anisyl propanal, (+/−)-3-(4-methoxyphenyl)-2-methylpropanal] | 14.3 mm | 530 µg/mL (≈ 2970 µM) | 11.6 mm | 222 µg/mL (≈ 1250 µM) | – | 6.6 mm | Ratio of inhibition zone diameter (0.5% PRM + 0.1% PO) to 0.1% PO (M. restricta [5]): 2.0; Ratio of inhibition zone diameter (1% PRM + 0.35% PO) to 0.35% PO (M. restricta [5]): 1.5 |
| CCCCC(CC)CO (stereo not drawn) [2-ethyl-1-hexanol] | 6.4 mm | 867 µg/mL (≈ 6660 µM) | 6.7 mm | 44 µg/mL (≈ 338 µM) | – | – | zone of inhibition at 2 % (M. furfur DSM 6170): 7.6 mm |
| CCCCCc1cc(C)ccn1 [4-methyl-2-pentylpyridine] | – | 693 µg/mL (≈ 4240 µM) | – | 222 µg/mL (≈ 1360 µM) | 6.7 mm | 6.6 mm | zone of inhibition at 2 % (M. furfur DSM 6170): 6.7 mm |
| CCCCCCCCC/C=C/C=O [(2E)-2-dodecenal] | 14.4 mm | 49 µg/mL (≈ 269 µM) | 15.2 mm | 148 µg/mL (≈ 812 µM) | – | 10 mm | Ratio of inhibition zone diameter (0.5% PRM + 0.1% PO) to 0.1% PO (M. restricta [5]): 2.1; Ratio of inhibition zone diameter (1% PRM + 0.35% PO) to 0.35% PO (M. restricta [5]): 1.2; zone of inhibition at 2 % [1]: 18.1 mm; zone of inhibition at 2 % (M. furfur DSM 6170): 12.6 mm; zone of inhibition at 2 % (M. globosa ATCC MYA-4612): 17.9 mm |
| C/C(=C\c1ccc(C)cc1)CCC=O [(4E)-4-methyl-5-(4-methylphenyl)-4-pentenal] | 11.6 mm | 75 µg/mL (≈ 398 µM) | 9 mm | 333 µg/mL (≈ 1770 µM) | – | 6.8 mm | Ratio of inhibition zone diameter (0.5% PRM + 0.1% PO) to 0.1% PO (M. restricta [5]): 1.2; zone of inhibition at 2 % [1]: 12 mm; zone of inhibition at 2 % (M. furfur DSM 6170): 7.5 mm; zone of inhibition at 2 % (M. globosa ATCC MYA-4612): 10.5 mm |
| CCCCCCCCCCO [Mix 1-decanol, 1-decanol] | 10 mm | 370 µg/mL (≈ 2340 µM) | 15.9 mm | 500 µg/mL (≈ 3160 µM) | 6.7 mm | 8.5 mm | zone of inhibition at 2 % [1]: 25 mm; zone of inhibition at 2 % (M. globosa ATCC MYA-4612): 16.4 mm |
| CCCCCCCCCCCCO [Mix 1-dodecanol, 1-dodecanol] | 11.5 mm | 22 µg/mL (≈ 118 µM) | 10.2 mm | – | 8.7 mm | 6.8 mm | – |
| C=CCCCCCCCCC=O [Mix 10-undecenal, 10-undecenal] | 12.7 mm | – | 14.1 mm | – | 7.1 mm | 6.5 mm | – |
| CC(C)(C)c1ccc(CCC=O)cc1 [cyclamen propanal, 3-(4-tert-butylphenyl)propanal] | – | – | – | – | 6.3 mm | 6.6 mm | zone of inhibition at 2 % [1]: 12.3 mm; zone of inhibition at 2 % (M. globosa ATCC MYA-4612): 7.9 mm |
| CCCCCCCCCC(=O)O [decanoic acid] | – | – | – | – | – | – | Ratio of inhibition zone diameter (1% PRM + 0.35% PO) to 0.35% PO (M. restricta [5]): 1.1 |
| CCCCCCC1CCCC(=O)O1 (stereo not drawn) [delta-undecalactone, 6-hexyltetrahydro-2H-pyran-2-one] | – | 293 µg/mL (≈ 1590 µM) | – | 333 µg/mL (≈ 1810 µM) | 6.4 mm | 6.1 mm | – |
| CCOc1cc(C=O)ccc1O [ethyl vanillin, 3-ethoxy-4-hydroxybenzaldehyde] | – | 2670 µg/mL (≈ 16000 µM) | – | 500 µg/mL (≈ 3010 µM) | – | – | zone of inhibition at 2 % [1]: 19.5 mm |
| c1ccc2[nH]ccc2c1 [indole] | – | 693 µg/mL (≈ 5920 µM) | 15.2 mm | 259 µg/mL (≈ 2210 µM) | 6.3 mm | – | – |
| COC(=O)c1c(C)cc(O)c(C)c1O [methyl 2,4-dihydroxy-3,6-dimethylbenzoate] | – | 111 µg/mL (≈ 566 µM) | – | 290 µg/mL (≈ 1480 µM) | 7.4 mm | 6.3 mm | zone of inhibition at 2 % [1]: 12 mm; zone of inhibition at 2 % (M. furfur DSM 6170): 7 mm; zone of inhibition at 2 % (M. globosa ATCC MYA-4612): 9.2 mm |
| CCCCCCC#CC(=O)OC [methyl octine carbonate, methyl 2-nonynoate] | 6.7 mm | – | 10.3 mm | – | – | 6.4 mm | – |
| CCCCCCCCC(=O)O [nonanoic acid] | – | – | – | – | – | – | Ratio of inhibition zone diameter (0.5% PRM + 0.1% PO) to 0.1% PO (M. restricta [5]): 1.1; Ratio of inhibition zone diameter (1% PRM + 0.35% PO) to 0.35% PO (M. restricta [5]): 1.2 |
| CCCCCCCC(=O)O [octanoic acid] | – | – | – | – | – | – | Ratio of inhibition zone diameter (1% PRM + 0.35% PO) to 0.35% PO (M. restricta [5]): 1.1 |
| CC(C)C1CCC(CO)CC1 (stereo not drawn) [p-menthan-7-ol] | – | 625 µg/mL (≈ 4000 µM) | – | 222 µg/mL (≈ 1420 µM) | 6.5 mm | 6.7 mm | zone of inhibition at 2 % (M. furfur DSM 6170): 6.3 mm |
| COc1ccc(C=O)cc1 [para-anisaldehyde, 4-methoxybenzaldehyde] | – | – | – | 500 µg/mL (≈ 3670 µM) | – | – | zone of inhibition at 2 % [1]: 13.4 mm |
| cyclopropylmethyl (3Z)-3-hexenoate + cyclopropylmethyl (3E)-3-hexenoate | – | – | – | – | – | – | MIC (ppm) M. furfur [4]: 333 ppm; Inhibition zone (mm) M. restricta ([1]; 0.2% in DMSO): 6.3 mm; Inhibition zone (mm) M. restricta ([1]; 2% in DMSO): 11.0 mm; Inhibition zone (mm) M. furfur (M. furfur DSM 6170; 2% in DMSO, 20 μL on 6 mm disc, 3 days, NI means no inhibition zone): 8.0 mm; MIC (ppm) S. aureus [2]: 625 ppm; Inhibition zone (mm) M. globosa (M. globosa ATCC MYA-4612; 0.2% in DMSO): 8.7 mm; Inhibition zone (mm) M. globosa (M. globosa ATCC MYA-4612; 2% in DMSO): 13.0 mm |
